Where a SMILES comes first, the peptide text is derived from it. Bridges are numbered along the chain shown (N, C = ends). Where no end group is shown, it is not given here.
Assays:
[1] = target: T1, specific ANP receptor sites on BASM or BAE cells (Bos taurus, UniProt P10730); assay: Competitive displacement receptor binding of (125I)-rANP(126-150) on cultured cells; set-up: species or system bovine
T1 construct: specific receptor sites on BASM or BAE cells; endogenous in cells; host or cells: cultured BASM and BAE cells
T1 sequence (P10730 42-537): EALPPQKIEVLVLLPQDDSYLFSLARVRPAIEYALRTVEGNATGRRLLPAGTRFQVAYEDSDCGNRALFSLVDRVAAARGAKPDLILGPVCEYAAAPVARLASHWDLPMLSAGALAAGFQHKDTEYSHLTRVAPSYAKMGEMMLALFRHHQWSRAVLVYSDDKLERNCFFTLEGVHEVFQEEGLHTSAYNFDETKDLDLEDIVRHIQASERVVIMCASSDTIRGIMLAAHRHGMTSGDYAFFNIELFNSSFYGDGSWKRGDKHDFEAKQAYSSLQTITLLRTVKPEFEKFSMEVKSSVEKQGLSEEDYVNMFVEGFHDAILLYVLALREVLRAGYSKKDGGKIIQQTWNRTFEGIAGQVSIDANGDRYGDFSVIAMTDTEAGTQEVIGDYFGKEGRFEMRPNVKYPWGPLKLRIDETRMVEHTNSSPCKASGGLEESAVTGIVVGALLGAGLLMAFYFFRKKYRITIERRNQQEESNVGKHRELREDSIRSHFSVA
Source text: Analogous "competitive displacement" receptor binding assays are considered commonplace in the art for examining specific ligand-receptor interactions.
Assuming these ANP analogs act at one or more ANP receptor sites, then increased receptor affinity should reflect increased biological potency.

[2] = tested on: anesthetized rats; assay: Diuresis in anesthetized rats; type: in vivo, rat
Method: In one set of examples, cannulae were placed in the left and right ureters and femoral vein of anesthetized rats and urine was collected from the ureters. Analog peptides were administered via the femoral vein. Prior to infusing the analog peptides, saline was infused for 30 minutes, urine was collected for 6 five-minute baseline periods and urine volume was determined gravimetrically. Following these baseline collection periods, various analog peptides were infused for 30 or 60 minutes and urine volume was measured in five-minute periods during infusion and for 60 minutes following infusion (at which time rats were returned to saline). Data was examined by averaging urine flow rates for six five-minute baseline control periods immediately preceding infusion, and comparing values during and after administration of peptides with the "baseline" control values. Responses to peptides are thus evaluated and plotted as the percent of baseline control responses. Specific examples are shown in FIGS. 3A-H. The error bars at the beginning of the graphs represent baseline values +standard deviations. Responses to peptides that are substantially above baseline ±SD can thus be interpreted as being statistically significant increases.

[3] = tested on: isolated perfused rat kidney; assay: Natriuresis and diuresis in the isolated perfused rat kidney; settings: N=4
Source text: The results are in Table 2C.

[4] = tested on: cortical-associated receptor sites of the kidney; assay: Competition for specific (125I)-rANP(123-150) binding in the kidney; set-up: species or system rat; settings: competitor 10^-7 M, tracer 4 × 10^-12 M, n=3
[5] = rANP(123-150) 10^-8 M in presence of AP57 10^-7 M
[6] = rANP(123-150) 10^-8 M, mean ± SE
[7] = rANP(123-150) 10^-9 M in presence of AP57 10^-7 M
[8] = rANP(123-150) 10^-9 M, mean ± SE
[9] = rANP(123-150) 10^-10 M in presence of AP57 10^-7 M
[10] = rANP(123-150) 10^-10 M, mean ± SE
[11] = rANP(123-150) 10^-11 M in presence of AP57 10^-7 M
[12] = rANP(123-150) 10^-11 M, mean ± SE

Compound: CC[C@H](C)[C@@H]1NC(=O)[C@H](CCCNC(=N)N)NC(=O)[C@H](CC(=O)O)NC(=O)[C@H]([C@@H](C)CC)NC(=O)[C@@H](NC(=O)[C@H](CO)NC(=O)[C@H](CO)NC(=O)[C@@H](N)CCCNC(=N)N)CSSC[C@@H](C(=O)N[C@@H](CC(N)=O)C(=O)N[C@@H](CO)C(=O)N[C@@H](Cc2ccccc2)C(=O)N[C@@H](CCCNC(=N)N)C(=O)N[C@@H](Cc2ccc(O)cc2)C(=O)O)NC(=O)CNC(=O)[C@H](CC(C)C)NC(=O)CNC(=O)[C@H](CO)NC(=O)[C@H](CCC(N)=O)NC(=O)[C@H](C)NC(=O)CNC1=O [AP54, R--S--S--C--I--D--R--I--G--A--Q--S--G--L--G--C--N--S--F--R--Y] (H-RSSCIDRIGAQSGLGCNSFRY-OH; disulfide 4-16)
- receptor binding / activity as judged by Ki, in words [1]: does not bind to the receptor
- Ki(app) ([1]; concentration of unlabeled peptide displacing 50% of maximal binding of 0.5 nM (125I)-rANP(126-150), BASM or BAE cells): > 200 nM
- in vivo diuretic/natriuretic activity in rats, in words ([2]; dose not stated): appears inactive in vivo

Compound: CC[C@H](C)[C@@H]1NC(=O)[C@H](CCCNC(=N)N)NC(=O)[C@H](CC(=O)O)NC(=O)[C@H]([C@@H](C)CC)NC(=O)[C@H](CCCNC(=N)N)NC(=O)CNC(=O)CNC(=O)[C@H](Cc2ccccc2)NC(=O)[C@@H](N)CSSC[C@@H](C(N)=O)NC(=O)[C@H](C)NC(=O)CNC1=O [AP37, C-F-G-G-R-I-D-R-I-G-A-C-NH2] (H-CFGGRIDRIGAC-NH2; disulfide 1-12)
- Ki ([1]; Table 2A, unit not given, in nM): 13.40
- prevention of (125I)-rANP(126-150) binding to BASM cell-associated receptors (FIG. 2) ([1]; increasing concentrations of unlabeled peptide, BASM cells): effectively prevent
- urine flow rate (urine volume), diuretic response ([2]; infused at 10 mcg/min via femoral vein, versus baseline, FIG. 3): significantly increased

Compound: rANP(123-150): sequence of ANP(126-150) which includes 3 additional upstream amino acids of the naturally occurring peptide (SLRRSSCFGGRIDRIGAQSGLGCNSFRY; not fully specified; ends and bridges not checked; UniProt P01161 123-150, looked up, fragment)
- FENa (fractional sodium excretion) [3, 5]: 4.77 ± 1.22%
- FF (filtration fraction) [3, 5]: 2.30 ± 0.47%
- GFR (glomerular filtration rate) [3, 5]: 0.84 ± 0.13 mL/min
- RVR (renal vascular resistance) [3, 5]: 2.63 ± 0.33 mmHg/ml/min
- UNa V (urinary sodium excretion rate) [3, 5]: 6.47 ± 2.29 uEq/min
- V (urine flow rate) [3, 5]: 132 ± 33 µL/min
- FENa (fractional sodium excretion) [3, 6]: 4.12 ± 0.94%
- FF (filtration fraction) [3, 6]: 2.23 ± 0.44%
- GFR (glomerular filtration rate) [3, 6]: 0.80 ± 0.08 mL/min
- RVR (renal vascular resistance) [3, 6]: 2.66 ± 0.32 mmHg/ml/min
- UNa V (urinary sodium excretion rate) [3, 6]: 4.78 ± 1.15 uEq/min
- V (urine flow rate) [3, 6]: 96.6 ± 24.0 µL/min
- FENa (fractional sodium excretion) [3, 7]: 4.08 ± 0.72%
- FF (filtration fraction) [3, 7]: 2.81 ± 0.40%
- GFR (glomerular filtration rate) [3, 7]: 0.99 ± 0.07 mL/min
- RVR (renal vascular resistance) [3, 7]: 2.79 ± 0.34 mmHg/ml/min
- UNa V (urinary sodium excretion rate) [3, 7]: 6.03 ± 1.37 uEq/min
- V (urine flow rate) [3, 7]: 139 ± 14 µL/min
- FENa (fractional sodium excretion) [3, 8]: 2.78 ± 0.89%
- FF (filtration fraction) [3, 8]: 2.30 ± 0.41%
- GFR (glomerular filtration rate) [3, 8]: 0.82 ± 0.07 mL/min
- RVR (renal vascular resistance) [3, 8]: 2.64 ± 0.35 mmHg/ml/min
- UNa V (urinary sodium excretion rate) [3, 8]: 3.22 ± 0.92 uEq/min
- V (urine flow rate) [3, 8]: 74.0 ± 14.8 µL/min
- FENa (fractional sodium excretion) [3, 9]: 1.33 ± 0.20%
- FF (filtration fraction) [3, 9]: 2.65 ± 0.20%
- GFR (glomerular filtration rate) [3, 9]: 0.93 ± 0.04 mL/min
- RVR (renal vascular resistance) [3, 9]: 2.80 ± 0.31 mmHg/ml/min
- UNa V (urinary sodium excretion rate) [3, 9]: 1.76 ± 0.25 uEq/min
- V (urine flow rate) [3, 9]: 70.6 ± 4.2 µL/min
- FENa (fractional sodium excretion) [3, 10]: 1.21 ± 0.44%
- FF (filtration fraction) [3, 10]: 1.76 ± 0.29%
- GFR (glomerular filtration rate) [3, 10]: 0.66 ± 0.07 mL/min
- RVR (renal vascular resistance) [3, 10]: 2.51 ± 0.26 mmHg/ml/min
- UNa V (urinary sodium excretion rate) [3, 10]: 1.13 ± 0.43 uEq/min
- V (urine flow rate) [3, 10]: 35.5 ± 5.7 µL/min
- FENa (fractional sodium excretion) [3, 11]: 0.41 ± 0.11%
- FF (filtration fraction) [3, 11]: 2.04 ± 0.15%
- GFR (glomerular filtration rate) [3, 11]: 0.80 ± 0.08 mL/min
- RVR (renal vascular resistance) [3, 11]: 2.50 ± 0.15 mmHg/ml/min
- UNa V (urinary sodium excretion rate) [3, 11]: 0.45 ± 0.10 uEq/min
- V (urine flow rate) [3, 11]: 31.0 ± 3.7 µL/min
- FENa (fractional sodium excretion) [3, 12]: 0.72 ± 0.19%
- FF (filtration fraction) [3, 12]: 1.33 ± 0.20%
- GFR (glomerular filtration rate) [3, 12]: 0.53 ± 0.04 mL/min
- RVR (renal vascular resistance) [3, 12]: 2.36 ± 0.20 mmHg/ml/min
- UNa V (urinary sodium excretion rate) [3, 12]: 0.53 ± 0.14 uEq/min
- V (urine flow rate) [3, 12]: 21.8 ± 1.7 µL/min
- RATIO OF BOUND/FREE (125I)-rANP(123-150), Whole Kidney ([4]; tracer alone 122 ± 46): 0.63 ± 0.27
- RATIO OF BOUND/FREE (125I)-rANP(123-150), Outer Cortex ([4]; tracer alone 176 ± 23): 0.77 ± 0.30

From patent US5047397A, “Linear analogs of atrial natriuretic peptides” (California Biotechnology Inc., priority 1988, dated 1991)
